Assay results published in patent US20240309038A1, “NOVEL GALACTOSIDE INHIBITOR OF GALECTINS” (GALECTO BIOTECH AB, priority 2020, published 2024).

How the values were obtained:
[1] = molecular target: Gal-3 (Homo sapiens, UniProt P17931); test: Fluorescence anisotropy assay, inhibition of galectin / fluorescein tagged saccharide probe interaction; format: binding
Procedure: The affinity of Example 1-59 for galectins were determined by a fluorescence anisotropy assay where the compound was used as an inhibitor of the interaction between galectin and a fluorescein tagged saccharide probe as described Sörme, P., Kahl-Knutsson, B., Huflejt, M., Nilsson, U. J., and Leffler H. (2004) Fluorescence polarization as an analytical tool to evaluate galectin-ligand interactions. Anal. Biochem. 334: 36-47, (Sarme et al., 2004)

[2] = Human hepatic Clint; format: in vitro ADME
[3] = CACO-2 A > B permeability; format: in vitro ADME; settings: human
Excerpt: The compounds of the present invention are novel β-D-galactopyranose compounds that unexpectedly have shown high affinity for galectin-3 and are considered novel potent drug candidates. In addition, it is seen that with these compounds the advantage is that the pyrazole moiety A^1 results in an improved uptake over CACO-2 cells predicting high oral bioavailability after oral administration and this is supported by disclosed ADME data herein. Further compared to compounds where A^1 is a triazole moiety this improvement is significant.

Sequence of Gal-3 (P17931 whole entry, species assumed): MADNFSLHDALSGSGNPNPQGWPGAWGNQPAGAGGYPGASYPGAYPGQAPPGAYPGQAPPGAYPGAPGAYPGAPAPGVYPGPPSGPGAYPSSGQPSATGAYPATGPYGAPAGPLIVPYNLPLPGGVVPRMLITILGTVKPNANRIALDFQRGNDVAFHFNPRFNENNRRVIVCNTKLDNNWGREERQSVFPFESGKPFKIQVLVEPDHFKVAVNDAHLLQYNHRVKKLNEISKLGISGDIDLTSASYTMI

Structure (SMILES) | Kd [1] | CLint scaled [2] | Papp A→B [3]
Cc1nc([C@@H]2OC(CO)[C@H](O)C(n3cc(-c4cc(F)c(Cl)c(F)c4)cn3)C2O)n(-c2cc(Cl)cnc2C2CC2)n1 (stereo in doubt) [Example 1, 3-{5-{3-[4-(4-Chloro-3,5-difluorophenyl)-1H-1,2-pyrazol-1-yl]-3-deoxy-β-D-galactopyranosyl}-3-methyl-1H-1,2,4-triazol-1-yl}-5-chloro-2-cyclopropylpyridine] | 32 nM | 1.3 mL/min/kg | 18 ×10⁻⁶ cm/s
Cc1nc([C@@H]2OC(CO)[C@H](O)C(n3cc(-c4cc(F)c(F)c(F)c4)cn3)C2O)n(-c2ccc3nc(C)sc3c2)n1 (stereo in doubt) [Example 8, 6-{5-{3-Deoxy-3-[4-(3,4,5-trifluorophenyl)-1H-1,2-pyrazol-1-yl]-β-D-galactopyranosyl}-3-methyl-1H-1,2,4-triazol-1-yl}-2-methylbenzothiazole] | 22 nM | 0.3 mL/min/kg | 17 ×10⁻⁶ cm/s
Cc1nc([C@@H]2OC(CO)[C@H](O)C(n3cc(-c4cc(F)c(Cl)c(F)c4)cn3)C2O)n(-c2ccc3nc(C)sc3c2)n1 (stereo in doubt) [Example 9, 6-{5-{3-[4-(4-Chloro-3,5-difluorophenyl)-1H-1,2-pyrazol-1-yl]-3-deoxy-β-D-galactopyranosyl}-3-methyl-1H-1,2,4-triazol-1-yl}-2-methylbenzothiazole] | 12 nM | 0.6 mL/min/kg | 20 ×10⁻⁶ cm/s
COc1ccccc1-c1nn(C2C(O)[C@H](c3nc(C)nn3-c3cc(Cl)ccc3C(F)(F)F)OC(CO)[C@@H]2O)cc1-c1cc(F)c(F)c(F)c1 (stereo in doubt) [Example 52, 5-Chloro-1-{5-{3-deoxy-3-[4-(3,4,5-trifluorophenyl)-3-(2-methoxyphenyl)-1H-1,2-pyrazol-1-yl]-β-D-galactopyranosyl}-3-methyl-1H-1,2,4-triazol-1-yl}-2-(trifluoromethyl)benzene] | 20 nM |  | 
Cc1nc([C@@H]2OC(CO)[C@H](O)C(n3cc(-c4cc(F)c(F)c(F)c4)c(-c4ccc(F)cc4)n3)C2O)n(-c2cc(Cl)ccc2C(F)(F)F)n1 (stereo in doubt) [Example 55, 5-Chloro-1-{5-{3-deoxy-3-[4-(3,4,5-trifluorophenyl)-3-(4-fluorophenyl)-1H-1,2-pyrazol-1-yl]-β-D-galactopyranosyl}-3-methyl-1H-1,2,4-triazol-1-yl}-2-(trifluoromethyl)benzene] | 100 nM |  | 
Cc1nc2ccc(-n3cnnc3[C@@H]3OC(CO)[C@H](O)C(n4cc(-c5cc(F)c(F)c(F)c5)cn4)[C@@H]3O)cc2s1 (stereo partly drawn) [Example 2, 6-{3-{3-Deoxy-3-[4-(3,4,5-trifluorophenyl)-1H-1,2-pyrazol-1-yl]-β-D-galactopyranosyl}-4H-1,2,4-triazol-4-yl}-2-methylbenzothiazole] | 39 nM |  | 

Continued by falling Kd [1], values first:

Kd [1] | CLint scaled [2] | Papp A→B [3] | Structure (SMILES)
240 nM |  |  | Cc1nc([C@@H]2OC(CO)[C@H](O)C(n3cc(-c4cc(F)c(F)c(F)c4)c(-c4cccc(F)c4)n3)C2O)n(-c2cc(Cl)ccc2C(F)(F)F)n1 (stereo in doubt) [Example 54, 5-Chloro-1-{5-{3-deoxy-3-[4-(3,4,5-trifluorophenyl)-3-(3-fluorophenyl)-1H-1,2-pyrazol-1-yl]-β-D-galactopyranosyl}-3-methyl-1H-1,2,4-triazol-1-yl}-2-(trifluoromethyl)benzene]
240 nM |  |  | Cc1nc([C@@H]2OC(CO)[C@H](O)C(n3cc(-c4cc(F)c(F)c(F)c4)cn3)[C@@H]2O)n(-c2cnc(C#N)c(Cl)c2)n1 (stereo partly drawn) [Example 23, 3-Chloro-2-cyano-5-{5-{3-deoxy-3-[4-(3,4,5-trifluorophenyl)-1H-1,2-pyrazol-1-yl]-β-D-galactopyranosyl}-3-methyl-1H-1,2,4-triazol-1-yl}pyridine]
110 nM |  |  | Cc1nc([C@@H]2OC(CO)[C@H](O)C(n3cc(-c4ccc(C(F)(F)F)cc4)cn3)C2O)n(-c2cc(Cl)ccc2C(F)(F)F)n1 (stereo in doubt) [Example 56, 5-Chloro-1-{5-{3-deoxy-3-{4-[4-(trifluoromethyl)phenyl]-1H-1,2-pyrazol-1-yl}-β-D-galactopyranosyl}-3-methyl-1H-1,2,4-triazol-1-yl}-2-(trifluoromethyl)benzene]
97 nM |  |  | Cc1nc([C@@H]2OC(CO)[C@H](O)C(n3cc(-c4cccc(Cl)c4)cn3)C2O)n(-c2cc(Cl)ccc2C(F)(F)F)n1 (stereo in doubt) [Example 58, 1-{5-{3-[4-(3-Chlorophenyl)-1H-1,2-pyrazol-1-yl]-3-deoxy-β-D-galactopyranosyl}-3-methyl-1H-1,2,4-triazol-1-yl}-5-chloro-2-(trifluoromethyl)benzene]
92 nM |  |  | Cc1nc([C@@H]2OC(CO)[C@H](O)C(n3cc(-c4cc(F)c(F)c(F)c4)c(-c4ccccc4C)n3)C2O)n(-c2cc(Cl)ccc2C(F)(F)F)n1 (stereo in doubt) [Example 53, 5-Chloro-1-{5-{3-deoxy-3-[4-(3,4,5-trifluorophenyl)-3-(2-methylphenyl)-1H-1,2-pyrazol-1-yl]-β-D-galactopyranosyl}-3-methyl-1H-1,2,4-triazol-1-yl}-2-(trifluoromethyl)benzene]
51 nM |  |  | Cc1nc([C@@H]2OC(CO)[C@H](O)C(n3cc(-c4ccc(Cl)cc4)cn3)C2O)n(-c2cc(Cl)ccc2C(F)(F)F)n1 (stereo in doubt) [Example 59, 1-{5-{3-[4-(4-Chlorophenyl)-1H-1,2-pyrazol-1-yl]-3-deoxy-β-D-galactopyranosyl}-3-methyl-1H-1,2,4-triazol-1-yl}-5-chloro-2-(trifluoromethyl)benzene]
15 nM | 0.2 mL/min/kg | 10 ×10⁻⁶ cm/s | Cc1nc([C@@H]2OC(CO)[C@H](O)C(n3cc(-c4cc(F)c(F)c(F)c4)cn3)C2O)n(-c2cc(Cl)cnc2C2CC2)n1 (stereo in doubt) [Example 13, 5-Chloro-3-{5-{3-deoxy-3-[4-(3,4,5-trifluorophenyl)-1H-1,2-pyrazol-1-yl]-β-D-galactopyranosyl}-3-methyl-1H-1,2,4-triazol-1-yl}-2-cyclopropylpyridine]
11 nM |  |  | Cc1nc([C@@H]2OC(CO)[C@H](O)C(n3cc(-c4ccc(C)c(F)c4)cn3)C2O)n(-c2cc(Cl)ccc2C(F)(F)F)n1 (stereo in doubt) [Example 57, 5-Chloro-1-{5-{3-deoxy-3-[4-(3-fluoro-4-methylphenyl)-1H-1,2-pyrazol-1-yl]-β-D-galactopyranosyl}-3-methyl-1H-1,2,4-triazol-1-yl}-2-(trifluoromethyl)benzene]
6 nM | 0.4 mL/min/kg | 18 ×10⁻⁶ cm/s | Cc1nc([C@@H]2OC(CO)[C@H](O)C(n3cc(-c4cc(F)c(Cl)c(F)c4)cn3)C2O)n(-c2cc(Cl)ccc2C(F)(F)F)n1 (stereo in doubt) [Example 5, 1-{5-{3-[4-(4-Chloro-3,5-difluorophenyl)-1H-1,2-pyrazol-1-yl]-3-deoxy-β-D-galactopyranosyl}-3-methyl-1H-1,2,4-triazol-1-yl}-5-chloro-2-(trifluoromethyl)benzene]
